Reference: US7101878B1 (Agouron Pharmaceuticals, Inc., priority 1998, dated 2006)

Tests used:
[1] = target: T1, human GnRH receptor (Homo sapiens, UniProt P30968); experiment: Radioligand binding, 125I-GnRH-A displacement, membranes of HEK 293 cells with human GnRH receptor; details: read-out: hGnRH IC50
T1 construct: expressed in transfected cells; host or cells: HEK 293 (hGnRH-R/293, from Dr. Stuart Sealfon)
T1 sequence (P30968 1-328): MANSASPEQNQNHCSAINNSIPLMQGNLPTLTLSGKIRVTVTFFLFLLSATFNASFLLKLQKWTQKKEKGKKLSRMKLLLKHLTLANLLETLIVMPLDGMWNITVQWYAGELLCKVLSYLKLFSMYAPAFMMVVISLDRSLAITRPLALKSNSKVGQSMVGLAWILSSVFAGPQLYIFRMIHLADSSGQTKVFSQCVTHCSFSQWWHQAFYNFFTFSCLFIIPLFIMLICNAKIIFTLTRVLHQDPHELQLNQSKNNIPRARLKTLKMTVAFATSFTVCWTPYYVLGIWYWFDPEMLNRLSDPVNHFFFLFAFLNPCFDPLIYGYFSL
Summary of the method: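 Bound tracer was separated by filtration through polyethyleneimine-soaked GF/C filters and counted by liquid scintillation. IC50 from curve fitting; other species were tested under the same conditions.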

[2] = target: T2, mouse GnRH receptor (Mus musculus, UniProt Q01776); experiment: Radioligand binding, 125I-GnRH-A, 293 cells expressing mouse GnRH receptors; details: read-out: mGnRH IC50
T2 construct: expressed in transfected cells; host or cells: 293 cells
T2 sequence (Q01776 1-327): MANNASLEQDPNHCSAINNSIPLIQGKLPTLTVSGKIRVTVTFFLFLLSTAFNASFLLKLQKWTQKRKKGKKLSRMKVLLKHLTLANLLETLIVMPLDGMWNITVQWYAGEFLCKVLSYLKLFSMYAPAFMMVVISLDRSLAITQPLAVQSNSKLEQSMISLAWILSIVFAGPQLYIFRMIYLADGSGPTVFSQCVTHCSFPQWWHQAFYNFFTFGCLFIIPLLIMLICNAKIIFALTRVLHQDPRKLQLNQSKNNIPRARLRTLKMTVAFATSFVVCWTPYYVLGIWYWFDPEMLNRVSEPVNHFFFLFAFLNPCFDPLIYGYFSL
Summary of the method: (§1)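 Bound label captured on 0.1% polyethyleneimine-treated GF/C filters, washed three times with PBS, counted. IC50 derived; identical set-up for every species.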

[3] = Pharmacokinetic studies / bioavailability in rats; format: in vivo, rat; details: for Cmax / Tmax / half-life: rat, plasma; for Cmax / Tmax: po, p.o. 10 mg/kg; for Cmax / Tmax / Fp.o.: 5 mg/ml solution in 10% DMSO 10% cremophor 80% saline
[4] = Metabolism rate, pmol/min/mg at 1 μM, human; format: in vitro ADME; details: 1 μM compound
[5] = Metabolism rate, pmol/min/mg at 1 μM, rat male; format: in vitro ADME; details: 1 μM compound
[6] = Metabolism rate, pmol/min/mg at 1 μM, rat female; format: in vitro ADME; details: 1 μM compound
[7] = target: T3, rat GnRH receptor (Rattus norvegicus, UniProt P30969); experiment: Radioligand binding, 125I-GnRH-A, rat pituitary membranes; parameters: membranes were prepared from rat pituitary; from tissue; host or cells: rat pituitary; details: read-out: rGnRH IC50
T3 sequence (P30969 1-327): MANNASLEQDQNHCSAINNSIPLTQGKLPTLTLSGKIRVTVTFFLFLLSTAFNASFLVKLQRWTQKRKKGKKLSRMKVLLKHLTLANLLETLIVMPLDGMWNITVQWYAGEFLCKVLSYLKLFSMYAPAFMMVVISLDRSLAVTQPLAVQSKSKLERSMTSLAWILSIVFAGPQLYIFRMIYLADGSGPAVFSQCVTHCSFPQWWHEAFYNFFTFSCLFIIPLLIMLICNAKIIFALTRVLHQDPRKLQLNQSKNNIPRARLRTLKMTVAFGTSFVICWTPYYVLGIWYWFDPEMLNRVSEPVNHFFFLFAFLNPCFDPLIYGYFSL
Summary of the method: as §1

[8] = target: T4, bovine GnRH receptor (Bos taurus, UniProt P32236); experiment: Radioligand binding, 125I-GnRH-A, bovine pituitary membranes; details: read-out: bGnRH IC50
T4 construct: membranes were prepared from bovine pituitary; from tissue; host or cells: bovine pituitary
T4 sequence (P32236 1-328): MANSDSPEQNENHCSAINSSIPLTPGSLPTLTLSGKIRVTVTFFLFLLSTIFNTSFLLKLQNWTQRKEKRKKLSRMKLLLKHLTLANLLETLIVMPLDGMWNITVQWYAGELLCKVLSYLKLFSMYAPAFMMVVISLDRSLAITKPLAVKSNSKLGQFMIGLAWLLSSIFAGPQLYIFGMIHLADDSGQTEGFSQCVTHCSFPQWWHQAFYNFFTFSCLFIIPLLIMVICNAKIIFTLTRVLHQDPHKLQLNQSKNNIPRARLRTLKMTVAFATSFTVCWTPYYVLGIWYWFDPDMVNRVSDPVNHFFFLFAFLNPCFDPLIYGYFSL
Protocol: All compounds were diluted in 1% DMSO (final assay concentration) in binding assay buffer. […] Reactions were terminated by rapid filtration onto 96-well Packard GF/C filters soaked in 0.1% polyethyleneimine. Filters were washed three times with PBS buffer, dried and counted on a Packard Topcount by liquid scintillation counting.
Assay conditions were identical for assessing compound activities at other species. […] IC50 values for control peptides and test compounds were calculated utilizing GraphPad Prism™ software.
The reaction mixture was vortexed and incubated for 1 min at room temperature. After one min, the mixture was vortexed and allowed to incubate for an additional minute. 2 ml of 0.5 M acetic acid/1% BSA was added to the reaction tube and the mixture was added to a C18 Sep-Pak cartridge. The cartridge was washed with subsequent washes of 5 ml H2O and 5 ml 0.5M acetic acid and then eluted with 5×1 ml of 60% CH3CN/40% 0.5M acetic acid. The eluate was diluted with 3× volume of HPLC buffer A (0.1% TFA in H2O) and loaded onto a C18 column. […] The radioactive fractions (750 ed/fraction) are collected into clean polypropylene tubes containing 100 μl of 10% BSA. Fractions were assessed for biological activity by radioligand binding.

| SMILES | IC50 [1] [µM] | IC50 [2] [µM] | Cmax ([3]; female, 10 mg/kg, rat female) [nM] | Tmax ([3]; female, 10 mg/kg, rat female) [h] | half-life ([3]; female, rat female) [h] | Fp.o. ([3]; rat female) | Human pmol/min/mg 1 μM [4] [pmol/min/mg] | Rat male pmol/min/mg 1 μM [5] [pmol/min/mg] | Rat female pmol/min/mg 1 μM [6] [pmol/min/mg] | IC50 [7] [µM] | IC50 [8] [µM] | half-life ([3]; male, iv, 10 mg/kg, rat male) [h] |
| --- | --- | --- | --- | --- | --- | --- | --- | --- | --- | --- | --- | --- |
| COc1cc2c(cc1Cc1ccc(C(=O)NCc3cccc(CNc4ccnc(NC[C@H]5CCCO5)n4)c3)o1)C(C)(C)CCC2(C)C (stereo in doubt) [Compound 199] | 0.092 | 0.015 | 80 | 4 | 1.5 | 10% (10 mg/kg)^10 | 181 | 3387 | 181 | 0.0096 | – | – |
| COc1ccc(CNC(=O)c2ccc(Cc3cc4c(cc3C)C(C)(C)CCC4(C)C)o2)c(OC)c1 [Compound 56] | 0.1 | 0.22 | – | – | – | – | 392 | 3412 | – | 0.07 | 1 | 2.6 |
| Cc1cc2c(cc1Cc1ccc(C(=O)NCc3ccc(CNc4ncccn4)cc3)o1)C(C)(C)CCC2(C)C [Compound 137] | 0.2 | 0.36 | 230 | 1 | 7.9 | 1% (10 mg/kg)^10 | 594 | – | 182 | 0.4 | – | – |
| CCOc1cccc(OCC)c1NC(=O)c1ccc(Cc2cc3c(cc2C)C(C)(C)CCC3(C)C)o1 [Compound 194] | 0.018 | 0.014 | – | – | – | – | 750 | 5978 | 205 | 0.035 | – | – |
| Cc1ccc(C(C)(C)C)cc1Cc1ccc(C(=O)Nc2ccc3[nH]ccc3c2)o1 [Compound 207] | 0.2 | – | 2810 | 1 | 1.6 | 41% (10 mg/kg)^10 | 157 | 1236 | 159 | – | – | – |
| Cc1ccc(C(C)(C)C)cc1Cc1ccc(C(=O)NCc2cccc(CNc3ccnc(NC[C@H]4CCCO4)n3)c2)o1 [Compound 212] | 0.08 | 0.062 | 50 | 1 | 1.6 | 1% (10 mg/kg)^10 | 322 | 3282 | 430 | 0.012 | – | – |
| COc1cc2c(cc1Cc1ccc(C(=O)Nc3c(OC)cc(OC)c(C#N)c3OC)o1)C(C)(C)CCC2(C)C [Compound 217] | 0.029 | 0.011 | 100 | 1 | 3.8 | 16% (10 mg/kg)^10 | 483 | 953 | 203 | 0.021 | – | – |
| COc1cc(OC)c(NC(=O)c2ccc(Cc3cc4c(cc3C)OCCC4(C)C)o2)c(OC)c1 [Compound 221] | 0.015 | 0.0092 | 340 | 1 | 3 | 41% (10 mg/kg)^10 | 116 | 528 | 223 | 0.011 | – | – |
| COc1cc(OC)c(NC(=O)c2ccc(Cc3c(C)ccc4c3OCCC4(C)C)o2)c(OC)c1 [Compound 222] | 0.11 | 0.065 | 810 | 1.5 | 3.2 | 54% (10 mg/kg)^10 | 115 | 575 | 167 | 0.078 | – | – |
| COc1cccc(OC)c1NC(=O)c1ccc(Cc2c(C)c(C)cc(C)c2C)o1 [Compound 225] | 0.174 | 0.85 | 340 | 1 | 1.1 | 24% (10 mg/kg)^10 | 450 | 2180 | 330 | 1.51 | – | – |
| COc1cccc(OC)c1NC(=O)c1ccc(Cc2c(C)c(C)c(Br)c(C)c2C)o1 [Compound 226] | 0.24 | 0.72 | 420 | 1 to 5 | 4.6 | 34% (10 mg/kg)^10 | 369 | 990 | 173 | 2.13 | – | – |
